Experimental data reported in patent publication US10273228B2, “Hepatitis B viral assembly effectors” (Indiana University Research and Technology Corporation, priority 2015, dated 2019).
Read-outs that look alike come from different tables or passages of the source.

Columns and labels:
[1] = test system: HBV viral load, AD38 cells; test: Activity of test compounds on viral production from AD38 cells (viral load by quantitative PCR of the core sequence in supernatant); assay type: cell-based, Hepatitis B virus; conditions: Hepatitis B virus, 144 h, 10 μM compound, 6 days at 37° C., vs DMSO control wells, read-out: AD38 Viral Load (CpAM/DMSO %) at 10 μM
Procedure, shortened: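 Cells seeded at 50,000/well on collagen-coated plates and exposed for 6 days at 37 °C to compound at 1, 3 or 10 μM final (1.0% DMSO). Supernatant viral DNA measured by TaqMan qPCR of the core sequence against known standards, compared with DMSO control wells.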

AD38 cells = test: AD38 viability normalized to DMSO control; assay type: cell-based; conditions: 10 μM compound, vs DMSO control
Procedure: AD38 cells were then re-suspended with 10 mL of treatment medium and counted. Wells of a collagen coated 96-well NUNC microtiter plate were seeded at 50,000/well in 180 μL of treatment medium, and 20 μL of either 10% DMSO (Control) or a 10× solution of test compound in 10% DMSO in treatment media was added for a final compound concentration 1, 3, or 10 μM (1.0% final [DMSO]) and plates were incubated for 6 days at 37° C.

SMILES | activity at 10 µM ([1]; Table 6) [%] | AD38 Viability Normalized Result (CPAM/DMSO %) at 10 μM (AD38 cells; Table 6) [%] | activity at 10 µM ([1]; Table 9) [%] | AD38 Viability Normalized Result (CPAM/DMSO %) at 10 μM (AD38 cells; Table 9) [%]
Cc1ccc(Nc2cc(C)nc(N3CCN(S(=O)(=O)c4cccs4)CC3)n2)cc1 [Compound 1146] | 15 | 106 | – | –
CN(C)c1cc(Oc2ccc(F)cc2)nc(N2CCN(S(=O)(=O)c3ccc(F)cc3)CC2)n1 [Compound 1297] | 59 | 103 | – | –
COc1ccc(S(=O)(=O)N2CCN(c3nc(C)cc(Nc4ccc(C#N)cc4)n3)CC2=O)cc1 [Compound 1366, 4-((2-(4-((4-methoxyphenyl)sulfonyl)-3-oxopiperazin-1-yl)-6-methylpyrimidin-4-yl)amino) benzonitrile] | – | – | 41 | 108
COc1ccc(S(=O)(=O)N2CCN(c3nc(C)cc(S(=O)(=O)c4ccc(C)cc4)n3)CC2)cc1 [Compound 1160, 2-(4-((4-methoxyphenyl)sulfonyl)piperazin-1-yl)-4-methyl-6-tosylpyrimidine] | 60 | 110 | – | –
COc1ccc(S(=O)(=O)N2CCN(c3nc(Nc4ccc(C)cc4)cc(N4CCOCC4)n3)CC2)cc1 [Compound 1179] | 45 | 103 | – | –
CN(C)c1cc(Nc2ccc(F)cc2)nc(N2CCN(S(=O)(=O)c3cccc(C(F)(F)F)c3)CC2)n1 [Compound 1305] | 4 | 6 | – | –
COc1ccc(S(=O)(=O)N2CCN(c3nc(Nc4ccc(C)cc4)cc(-c4ccccn4)n3)CC2)cc1 [Compound 1250, 2-(4-((4-methoxyphenyl)sulfonyl)piperazin-1-yl)-6-(pyridin-2-yl)-N-(p-tolyl) pyrimidin-4-amine] | 56 | 101 | – | –
COc1ccc(S(=O)(=O)N2CCN(c3nc(Nc4ccc(C)cc4)cc(N4CCCCC4)n3)CC2)cc1 [Compound 1190] | 72 | 83 | – | –
O=S(=O)(c1ccccc1)N1CCN(c2nc(Nc3ccc(F)cc3)cc(-c3nccs3)n2)CC1 [Compound 1360] | – | – | 28 | 94
Cc1ccc(Nc2cc(C)nc(N3CCN(S(=O)(=O)c4cn[nH]c4)CC3)n2)cc1 [Compound 1238] | 26 | 102 | – | –
COc1ccc(S(=O)(=O)N2CCN(c3cc(C)cc(Nc4ccc(C)cc4)n3)CC2)cc1 [Compound 1172] | 21 | 107 | – | –
N#Cc1ccc(Nc2cc(-c3cncs3)nc(N3CCN(S(=O)(=O)c4ccccc4)CC3)n2)cc1 [Compound 1374] | – | – | 7 | 107
COC(=O)CCCOc1ccc(S(=O)(=O)N2CCN(c3nc(C)cc(Nc4ccc(F)cc4)n3)CC2)cc1 [Compound 1387, methyl 4-(4-((4-(4-((4-fluorophenyl)amino)-6-methylpyrimidin-2-yl)piperazin-1-yl)sulfonyl)phenoxy) butanoate] | – | – | 19 | 107
Cc1cc(Nc2ccc(F)cc2)nc(N2CCN(S(=O)(=O)c3ccc(OCCCC(=O)O)cc3)CC2)n1 [Compound 1394, 4-(4-((4-(4-((4-fluorophenyl)amino)-6-methylpyrimidin-2-yl)piperazin-1-yl)sulfonyl)phenoxy) butanoic acid] | – | – | 32 | 79
CCOc1ccc(S(=O)(=O)N2CCN(c3nc(Nc4ccc(C#N)cc4)cc(-c4cncs4)n3)CC2)cc1 [Compound 1373] | – | – | 8 | 109
CCCCOc1ccc(S(=O)(=O)N2CCN(c3nc(C)cc(Nc4ccc(F)cc4)n3)CC2)cc1 [Compound 1337] | – | – | 34 | 93
COc1ccc(S(=O)(=O)N2CCN(c3nc(Nc4ccc(C)cc4)cc(N4CCSCC4)n3)CC2)cc1 [Compound 1241, 2-(4-((4-methoxyphenyl)sulfonyl)piperazin-1-yl)-6-thiomorpholino-N-(p-tolyl) pyrimidin-4-amine] | 65 | 98 | – | –
C[C@H](Oc1ccc(S(=O)(=O)N2CCN(c3nc(Nc4ccc(F)cc4)cc(C(F)(F)F)n3)CC2)cc1)C(=O)O [Compound 1410, (S)-2-(4-((4-(4-((4-fluorophenyl)amino)-6-(trifluoromethyl)pyrimidin-2-yl)piperazin-1-yl)sulfonyl)phenoxy) propanoic acid] | – | – | 14 | 58
COc1ccc(S(=O)(=O)N2CCN(c3nc(NCCO)cc(Nc4ccc(C)cc4)n3)CC2)cc1 [Compound 1232] | 83 | 96 | – | –
CCOc1ccc(S(=O)(=O)N2CCN(c3nc(Nc4ccc(F)cc4)cc(-c4nccs4)n3)CC2)cc1 [Compound 1358] | – | – | 77 | 99
Cc1ccc(Nc2cc(C)nc(N3CCN(S(=O)(=O)c4c[nH]cn4)CC3)n2)cc1 [Compound 1134] | 32 | 123 | – | –
O=S(=O)(c1ccc(OC(F)(F)F)cc1)N1CCN(c2nc(Nc3ccccn3)cc(C(F)(F)F)n2)CC1 [Compound 1415] | – | – | 120 | 101
COc1ccc(S(=O)(=O)N2CCN(c3nc(Nc4ccc(C)cc4)cc(-n4nccn4)n3)CC2)cc1 [Compound 1247] | 6 | 98 | – | –
COc1ccc(S(=O)(=O)N2CCN(c3nc(Nc4ccc(C)cc4)cc(N4CCN(C)CC4)n3)CC2)cc1 [Compound 1207] | 83 | 0 | – | –
Cc1ccc(Nc2cc(C)nc(N3CCN(S(=O)(=O)c4ccc(Oc5ccccc5)cc4)CC3)n2)cc1 [Compound 1136] | 24 | 113 | – | –
